How the values were obtained:
Kir1.1 (ROMK1) = Kir1.1 (ROMK1) (Homo sapiens (Human), UniProt P48048); assay: Electrophysiology Assay (whole cell voltage clamp, IonWorks Quattro); type: cell-based; settings: Chinese hamster ovary cells stably expressing Kir1.1; block during voltage step to 0 mV; 6 minutes compound incubation; read-out: EP Assay IC50
Description: (§1) Several assays may be used to measure functional inhibition of the ROMK channel by compounds of the instant invention. One assay that can be used is an electrophysiology assay that measures the electrical current that is generated as potassium permeates through the channel. Another ROMK functional assay makes use of the ability of thallium to permeate through open ROMK channels and increase the fluorescence of a dye previously loaded into the cells. Under control conditions, cells loaded with dye and exposed to thallium-containing medium display a time-dependent increase in fluorescence, the rate of which depends on number of functional channels. When cells are incubated in the presence of a channel inhibitor, the increase in fluorescence is attenuated in a concentration-dependent manner, and IC50 values of inhibition by compounds can be accurately determined. This assay has been established with cell lines expressing either human, or rat ROMK channels, and operates in 384-well format.
Chinese hamster ovary cells stably expressing Kir1.1 channels were maintained in T-75 flasks in cell culture media in a humidified 10% CO2 incubator at 37° C. Prior to an experiment, Kir1.1 expression was induced by overnight incubation with 1 mM sodium butyrate. […] After centrifugation, the cell pellet was resuspended in approximately 4.0 ml of bath solution and placed in the IonWorks® instrument. The intracellular solution consisted of (in mM): 80 K gluconate, 40 KCl, 20 KF, 3.2 MgCl2, 3 EGTA, 5 Hepes, pH 7.4. Electrical access to the cytoplasm was achieved by perforation in 0.13 mg/ml amphotericin B for 4 minutes.
Voltage protocols and current recordings were performed using the IonWorks® HT software/hardware system. Currents were sampled at 1 kHz. No correction for liquid junction potentials was used. The test pulse, consisting of a 100 ms step to 0 mV from a holding potential of −70 mV, followed by a 100 ms voltage ramp from −70 mV to +70 mV, was applied before and after a 6 minutes compound incubation period. Test compounds were prepared by diluting DMSO stock solutions into the bath solution at 3× the final concentration and placed in the instrument in 96-well polypropylene plates. Current amplitudes were measured using the IonWorks® software.

hROMK (hKir1.1) = hROMK (hKir1.1) (Homo sapiens (Human), UniProt P48048); assay: Thallium Flux Assay (ROMK channel functional thallium flux, FLIPR-Tetra); type: cell-based; settings: HEK293 cells stably expressing hROMK (hKir1.1); 30 min compound incubation
Description: as §1
HEK293 cells stably expressing hROMK (hKir1.1) were grown at 37° C. in a 10% CO2 humidified incubator in complete growth media: Dulbecco's Modified Eagle Medium supplemented with non-essential amino acids, Penicillin/Streptomycin/Glutamine, G418 and FBS. At >80% confluency, the media was aspirated from the flask and the sample was rinsed with 10 ml Calcium/Magnesium-free PBS. […] To dislodge the cell, the side of the flask was gently banged with a hand. The cells were triturated completely and then transferred to 25 ml complete media. The sample was then centrifuged at 1,500 rpm for 6 minutes, followed by resuspension in complete growth media and then cell concentration was determined. […] Under ideal growth conditions and appropriate tissue culture practices, this cell line is stable for 40-45 passages.
• FluxOR™ Reagent (Component A) • FluxOR™ Assay Buffer (Component B)—10× Concentrate • PowerLoad™ Concentrate (Component C)—100× Concentrate • Probenecid (Component D) Lyophilized sample is kept at −20° C. Water soluble, 100× after solubilization in 1 ml water. […] Store at 4° C. • Thallium sulfate (Tl2SO4) Concentrate (Component G)—50 mM in water. […] Can be stored at room temperature • Stimulant Buffer (prepared at 5× final concentration in 1× FluxOR™Chloride-Free Buffer): 7.5 mM Thallium sulfate and 0.75 mM Potassium sulfate (to give a final assay concentration of 3 mM Thallium 0.3 mM Potassium). Store at 4° C. when not in use. If kept sterile, this solution is good for months. Assay Protocol—
The ROMK channel functional thallium flux assay is performed in 384 wells, using the FLIPR-Tetra instrument. HEK-hKir1.1 cells are seeded in Poly-D-Lysine microplates and kept in a 37° C.-10% CO2 incubator overnight. On the day of the experiment, the growth media is replaced with the FluxOR™ reagent loading buffer and incubated, protected from light, at ambient temperature (23-25° C.) for 90 min. The loading buffer is replaced with assay buffer±test compound followed by 30 min incubation at ambient temperature, where the Thallium/Potassium stimulant is added to the microplate.
• 1. Seed HEK-hKir1.1 cells (50 μl at 20,000 cells/well) in 384-well PDL coated Microplates • 2. Allow cells to adhere overnight in humidified 37° C./10% CO2 incubator • 3. Completely remove cell growth media from microplate and replace with 25 μl loading buffer • 4. Incubate Microplate at room temperature, protected form light, for 90 min • 5. Remove loading buffer and replace with 25 μl 1× Assay Buffer±test compound. • 6. Incubate microplate at room temperature, protected form light, for 30 min • 7. […] Excitation=400 nm, Emission=460 & 580 nm. Collect data for 10 min. Data Calculation—
The fluorescence intensity of wells containing 3 μM of a standard control ROMK inhibitor of the present invention is used to define the ROMK-sensitive component of thallium flux. Fluorescence in the presence of test compounds is normalized to control values to provide % fluorescence change.

Chain of hROMK (hKir1.1) (P48048 whole entry): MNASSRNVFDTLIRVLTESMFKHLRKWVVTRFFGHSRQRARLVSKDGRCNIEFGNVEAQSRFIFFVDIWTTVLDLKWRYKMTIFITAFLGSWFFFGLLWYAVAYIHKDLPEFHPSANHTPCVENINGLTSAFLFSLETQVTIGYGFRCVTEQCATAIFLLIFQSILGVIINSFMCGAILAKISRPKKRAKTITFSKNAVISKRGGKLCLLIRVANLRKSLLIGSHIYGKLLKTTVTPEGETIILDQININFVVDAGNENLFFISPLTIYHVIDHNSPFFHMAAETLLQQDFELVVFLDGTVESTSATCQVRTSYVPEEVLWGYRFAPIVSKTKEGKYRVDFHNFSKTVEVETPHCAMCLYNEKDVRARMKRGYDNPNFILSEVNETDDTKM
Chain of Kir1.1 (ROMK1) (P48048 whole entry, species assumed): as the sequence (P48048 whole entry) above

Compound	IC50 (Kir1.1 (ROMK1))	IC50 (hROMK (hKir1.1))
Cc1c(C(O)CN2CC[C@@H](NC[C@H](O)c3ccc4c(c3C)COC4=O)C2)ccc2c1COC2=O (stereo in doubt) [Example 1, 5-{(1R)-1-Hydroxy-2-[(3R)-3-{[(2R)-2-hydroxy-2-(4-methyl-1-oxo-1,3-dihydro-2-benzofuran-5-yl)ethyl]amino}pyrrolidin-1-yl]ethyl}-4-methyl-2-benzofuran-1(3H)-one]	595 nM	414 nM
Cc1c([C@@H](O)CN2CCCC2CNS(=O)(=O)c2ccc(-n3cnnn3)cc2)ccc2c1COC2=O (stereo partly drawn) [Example 19, N-((1-((R)-2-Hydroxy-2-(4-methyl-1-oxo-1,3-dihydroisobenzofuran-5-yl)ethyl)pyrrolidin-2-yl)methyl)-4-(1H-tetrazol-1-yl)benzenesulfonamide]	245 nM	206 nM
Cc1c([C@@H](O)CN2CCC(CNc3ccc(C#N)cn3)(c3ccccc3)C2)ccc2c1COC2=O (stereo partly drawn) [Example 22, 6-((1-((R)-2-Hydroxy-2-(4-methyl-1-oxo-1,3-dihydroisobenzofuran-5-yl)ethyl)-3-phenylpyrrolidin-3-yl)methylamino)nicotinonitrile]	340 nM	808 nM
Cc1c([C@@H](O)CNC2C[C@H]3C[C@@H]2N(C[C@H](O)c2ccc4c(c2C)COC4=O)C3)ccc2c1COC2=O (single isomer, unassigned) [Example 17A]	1420 nM	500 nM
Cc1c([C@@H](O)CNC2(C3CCN(C[C@H](O)c4ccc5c(c4C)COC5=O)C3)CCC2)ccc2c1COC2=O (stereo partly drawn) [Example 2, 5-{(1R)-1-Hydroxy-2-[3-(1-{[(2R)-2-hydroxy-2-(4-methyl-1-oxo-1,3-dihydro-2-benzofuran-5-yl)ethyl]amino}cyclobutyl)pyrrolidin-1-yl]ethyl}-4-methyl-2-benzofuran-1(3H)-one]	420 nM	172 nM
Cc1c([C@@H](O)CN2CC(CNS(=O)(=O)c3ccc(C#N)cc3)C2)ccc2c1COC2=O [Example 14, (R)-4-Cyano-N-((1-(2-hydroxy-2-(4-methyl-1-oxo-1,3-dihydroisobenzofuran-5-yl)ethyl)azetidin-3-yl)methyl)benzenesulfonamide]	150 nM	122 nM

— patent US9108947B2, “Inhibitors of the Renal Outer Medullary Potassium channel” (Merck Sharp & Dohme Corp., priority 2011, dated 2015)
